Experimental data from ChEMBL document CHEMBL1131315, “Synthesis and anticonvulsant activity of 2(3H)-benzoxazolone and 2(3H)-benzothiazolone derivatives” (J Med Chem, 1998).
The source made the active and inactive calls. The calls are words filed in the database; no cut-off is given here.

Experiments:
[1] = The compound was determined for the dose (mg/kg) by rotarod test at the time of peak neurotoxic effect in mice on ip administration.; assay type: ADME, organism-based; settings: mouse, in vivo
[2] = The compound was tested for neurologic toxicity (rotarod) test for 4 hours in mice; no activity or no toxicity at 300 mg/kg; assay type: organism-based; parameters: dose 300 mg/kg; settings: mouse, in vivo
Mus musculus [3] = experiment: Time of peak effect in mice following i.p. administration.; assay type: functional
Mus musculus [4] = experiment: The anticonvulsant activity in subcutaneous pentylenetetrazole seizure test (sc Met) for 4 hr in mice; no activity or no toxicity at 300 mg/kg; assay type: functional, organism-based; parameters: dose 300 mg/kg
[5] = target: Sigma non-opioid intracellular receptor 1 (Homo sapiens) (UniProt Q99720); experiment: Ratio between the Ki(nM)values of sigma-2 and sigma-1; assay type: functional
Sigma 2 receptor = experiment: Affinity on sigma 2 receptor using [3H]- DTG as radioligand
Mus musculus [6] = experiment: Anticonvulsant activity in Maximal electroshock seizure test at 100 mg/kg i.p. in mice.; assay type: functional, organism-based; parameters: dose 100 mg/kg
Mus musculus [7] = experiment: Anticonvulsant activity in subcutaneous pentylenetetrazole seizure test for 30 min in mice; No activity/toxicity at 300 mg/kg.; assay type: functional, organism-based; parameters: dose 300 mg/kg
Mus musculus [8] = experiment: Inhibition of s.c. pentylenetetrazole induced seizure in mice following i.p. administration.; assay type: functional
[9] = The compound was tested for time of peak effect (TPE) in hours for its toxicity in mice on ip administration.; assay type: organism-based; settings: mouse, in vivo
Mus musculus [10] = experiment: The compound was tested to inhibit 50% of induced maximal electroshock seizure in mice on ip administration; assay type: functional
Mus musculus [11] = experiment: The compound was tested for anticonvulsant activity in Maximal electroshock seizure test (MES) for 4 hr in mice(ip); no activity or toxicity at 300 mg/kg; assay type: functional, organism-based; parameters: dose 300 mg/kg
[12] = The compound was tested for neurologic toxicity (rotarod) test for 30 min in mice; active at 100 mg/kg; assay type: organism-based; parameters: dose 100 mg/kg; settings: mouse, in vivo, 0.5 h
[13] = The compound was tested for neurologic toxicity (rotarod) test for 4 hours in mice; active at 300 mg/kg; assay type: organism-based; parameters: dose 300 mg/kg; settings: mouse, in vivo
Mus musculus [14] = experiment: The compound was tested for anticonvulsant activity in Maximal electroshock seizure test (MES) for 4 hr in mice(ip); active at 300 mg/kg; assay type: functional, organism-based; parameters: dose 300 mg/kg
Mus musculus [15] = experiment: The compound was tested to inhibit 50% of induced maximal electroshock seizure in mice on ip administration.; assay type: functional
Mus musculus [16] = experiment: The compound was tested for anticonvulsant activity in Maximal electroshock seizure test for 30 min in mice(ip); active at 30 mg/kg; assay type: functional, organism-based; parameters: dose 30 mg/kg
Mus musculus [17] = experiment: The compound was tested for anticonvulsant activity in subcutaneous pentylenetetrazole seizure test (sc Met) for 30 min in mice; active at 100 mg/kg; assay type: functional, organism-based; parameters: dose 100 mg/kg
[18] = The compound was tested for neurologic toxicity (rotarod) test for 30 min in mice; active at 300 mg/kg; assay type: organism-based; parameters: dose 300 mg/kg; settings: mouse, in vivo, 0.5 h

Sequence of Sigma non-opioid intracellular receptor 1 (Homo sapiens) (Q99720 whole entry): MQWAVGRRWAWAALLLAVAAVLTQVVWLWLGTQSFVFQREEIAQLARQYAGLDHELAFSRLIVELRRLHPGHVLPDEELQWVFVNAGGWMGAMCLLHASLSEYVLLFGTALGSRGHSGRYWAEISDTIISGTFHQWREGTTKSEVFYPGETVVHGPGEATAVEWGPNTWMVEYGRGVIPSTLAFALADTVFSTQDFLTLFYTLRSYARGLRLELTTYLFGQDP

SMILES | TD50 [1] [mg/kg] | Rotarod toxicity [2] | Activity (Mus musculus [3]) [h] | scMet (Mus musculus [4]) | Ratio [5] | Ki (Sigma 2 receptor) [nM] | MES (Mus musculus [6]) | scMet (Mus musculus [7]) | ED50 (Mus musculus [8]) [mg/kg] | Toxicity [9] [h] | ED50 (Mus musculus [10]) [mg/kg] | MES (Mus musculus [11]) | Rotarod toxicity [12] | Rotarod toxicity [13] | MES (Mus musculus [14]) | ED50 (Mus musculus [15]) [mg/kg] | MES (Mus musculus [16]) | scMet (Mus musculus [17]) | Rotarod toxicity [18]
CCC(=O)c1ccc2c(c1)oc(=O)n2CCN1CCCCC1 | 72.9 | active at 100 mg/kg | 0.25 | No activity or no toxicity at 300 mg/kg | 13 | 900 | No activity or toxicity at 300 mg/kg | No activity or no toxicity at 300 mg/kg | > 100 | 0.25 | 61 | No activity or toxicity at 300 mg/kg | active at 100 mg/kg |  |  |  |  |  | 
CCCCC(=O)c1ccc2c(c1)sc(=O)n2CCN1CCOCC1 |  |  |  | No activity or no toxicity at 300 mg/kg |  |  | active at 300 mg/kg | No activity or no toxicity at 300 mg/kg |  |  |  |  | active at 100 mg/kg | active at 100 mg/kg | active at 300 mg/kg |  |  |  | 
CCC(=O)c1ccc2c(c1)sc(=O)n2CCN1CCCC1 | 48.4 | active at 100 mg/kg | 0.25 | No activity or no toxicity at 300 mg/kg | 1.6 | 919 |  | No activity or no toxicity at 300 mg/kg | > 80 | 0.25 |  | active at 30 mg/kg | active at 100 mg/kg |  |  | 13.9 | active at 30 mg/kg |  | 
CCCCC(=O)c1ccc2c(c1)sc(=O)n2CCN(C)C | 61.5 | active at 100 mg/kg | 0.25 | No activity or no toxicity at 300 mg/kg | 7 | 4610 |  | No activity or no toxicity at 300 mg/kg | > 70 | 0.25 |  | active at 30 mg/kg | active at 100 mg/kg |  |  | 27.3 | active at 30 mg/kg |  | 
CCCCCc1ccc2nc(O)oc2c1 | 168 | active at 100 mg/kg | 0.5 | active at 100 mg/kg |  |  | active at 300 mg/kg |  | 80.7 | 1 | 70.8 |  | active at 100 mg/kg |  | active at 300 mg/kg |  |  | active at 100 mg/kg | 
CCCc1ccc2nc(O)oc2c1 |  |  |  | active at 100 mg/kg |  |  | active at 300 mg/kg |  |  |  |  |  | active at 100 mg/kg | active at 100 mg/kg | active at 300 mg/kg |  |  | active at 100 mg/kg | 
CCCCC(=O)c1ccc2c(c1)oc(=O)n2CCN1CCCCC1 |  | active at 100 mg/kg |  | No activity or no toxicity at 300 mg/kg |  |  | No activity or toxicity at 300 mg/kg | No activity or no toxicity at 300 mg/kg |  |  |  | No activity or toxicity at 300 mg/kg | active at 100 mg/kg |  |  |  |  |  | 
CCC(=O)c1ccc2c(c1)oc(=O)n2C |  | active at 100 mg/kg |  | active at 100 mg/kg |  |  | No activity or toxicity at 300 mg/kg |  |  |  |  | No activity or toxicity at 300 mg/kg | active at 100 mg/kg |  |  |  |  | active at 100 mg/kg | 
CCCCC(=O)c1ccc2c(c1)oc(=O)n2CCCN1CCCCC1 |  | active at 100 mg/kg |  | No activity or no toxicity at 300 mg/kg |  |  | active at 300 mg/kg | No activity or no toxicity at 300 mg/kg |  |  |  |  | active at 100 mg/kg |  | active at 300 mg/kg |  |  |  | 
O=c1[nH]c2ccccc2o1 [BENZOXAZOLINONE] |  | active at 300 mg/kg |  | No activity or no toxicity at 300 mg/kg |  |  | No activity or toxicity at 300 mg/kg | No activity or no toxicity at 300 mg/kg |  |  |  | No activity or toxicity at 300 mg/kg |  |  |  |  |  |  | active at 300 mg/kg
